# How the values were obtained:
# [1] = test system: human plasma supplemented with lipoprotein lipase (LPL); assay: In vitro hydrolysis of prodrugs in human plasma supplemented with lipoprotein lipase; assay type: in vitro ADME; conditions: 37° C.
# Protocol: (§1) In order to probe the release of free drug from TG prodrugs in the systemic circulation, prodrugs are incubated with plasma (rat, mouse, dog, pig or human) supplemented with lipoprotein lipase (LPL, 200 IU/ml). LPL is a key enzyme required for the hydrolysis of lipoprotein associated TG in the systemic circulation and is therefore expected to be a key contributor to lipolysis of the re-esterified drug-TG construct in plasma, largely via liberation of fatty acids in the sn-1 and the sn-3 position of the TG-mimetic, prior to drug release from the 2′ position via esterase hydrolysis. […] is tethered to the luminal surface of vascular endothelial cells under physiological conditions. In the current in vitro studies, plasma is therefore supplemented with LPL to better reflect the in vivo situation.
# To start hydrolysis, 10 μl of LPL solution (10,000 IU/ml) was added to a mixture of 10 μl of prodrug solution (1 mg/ml dissolved in acetonitrile) and 500 μl of blank plasma. The mixture was incubated at 37° C. […] The supernatant was analyzed by HPLC-MS/MS for the potential products (MG form, acid form, and free drug) of prodrug hydrolysis.
# The in vitro hydrolysis profile of selected prodrug compounds was determined in rat, dog, and/or human plasma supplemented with LPL. […]
# [2] = test system: rat plasma supplemented with lipoprotein lipase (LPL); assay: In vitro hydrolysis of prodrugs in rat plasma supplemented with lipoprotein lipase; assay type: in vitro ADME; conditions: 37° C.; for hydrolysis of prodrug to its monoglyceride form: 0-180 min
# Protocol: as §1
# (§2) To start hydrolysis, 10 μl of LPL solution (10,000 IU/ml) was added to a mixture of 10 μl of prodrug solution (1 mg/ml dissolved in acetonitrile) and 500 μl of blank plasma. The mixture was incubated at 37° C. Samples (20 μl) of the incubation solution were taken at 0, 5, 15, 30, 60, 90, 120 and 180 minutes post-incubation and added to 180 μl of MeCN to stop lipolysis. The mixture was vortexed and centrifuged at 4500×g for 5 minutes to precipitate proteins prior to analysis. The supernatant was analyzed by HPLC-MS/MS for the potential products (MG form, acid form, and free drug) of prodrug hydrolysis.
# (§3) The in vitro hydrolysis profile of selected prodrug compounds was determined in rat, dog, and/or human plasma supplemented with LPL. The data for prodrug compound I-1 in rat and dog plasma are shown in FIG. 10 and FIG. 11, respectively. The data for prodrug compound I-2 in rat, dog, and human plasma are shown in FIG. 12, FIG. 13, and FIG. 14, respectively. […] The monoglycerides were then converted at different rates to an acid intermediate and/or free parent ALLO. An acid intermediate was not observed for prodrug I-2. The acid intermediate of prodrug I-1 is believed to have the following structure, based on HPLC-MS data: […]
# [3] = test system: dog plasma supplemented with lipoprotein lipase (LPL); assay: In vitro hydrolysis of prodrugs in dog plasma supplemented with lipoprotein lipase; assay type: in vitro ADME; conditions: 37° C.; for hydrolysis of prodrug to its monoglyceride form: 0-180 min
# Protocol: as §1, §2, §3
# [4] = test system: porcine pancreatic lipase; assay: In vitro hydrolysis of prodrugs by incubation with porcine pancreatic lipase; assay type: in vitro ADME; conditions: 37° C.; for hydrolysis of prodrug to its monoglyceride form: simulated intestinal micellar solution, 0-180 min
# Protocol: To provide for higher throughput of experiments, unless otherwise stated, in vitro hydrolysis of compounds will generally be performed via incubation with porcine pancreatic lipase. This provides a more reproducible source of pancreatic enzymes, facilitates enhanced experimental throughput, and is also a greater challenge than collected rat enzymes (since enzyme activity in rat intestinal fluid is low). Briefly, pancreatic lipase solution was prepared prior to the hydrolysis experiment by dispersion of 1 g porcine pancreatin in 5 ml of lipolysis buffer and 16.9 μL of 0.5 M NaOH. The suspension was mixed well and centrifuged at 3500 rpm for 15 minutes at 5° C. to provide a supernatant. An amount of 1000 mL of lipolysis buffer was prepared with 0.474 g of tris-maleate (2 mM), 0.206 g of CaCl2.H2O (1.4 mM) and 8.775 g of NaCl (150 mM) adjusted with NaOH to pH 6.5. To assess the potential for prodrug hydrolysis in the intestine, 20 μL of prodrug solution (1 mg/mL dissolved in acetonitrile), 900 μL of simulated intestinal micellar solution [prepared with 0.783 g of NaTDC (3 mM) and 0.291 g of phosphatidylcholine (0.75 mM) in 500 mL lipolysis buffer] and 100 μL of enzyme solution were incubated at 37° C. 20 μL samples of the incubation solution were taken at 0, 5, 10, 15, 30, 60, 90, 120 and 180 minutes post incubation and added to 180 μL of MeCN to stop lipolysis. The mixture was vortexed and centrifuged at 5000 rpm for 5 minutes to precipitate proteins prior to analysis. The supernatant was analyzed by HPLC-MS for residual compound concentrations, and the potential products of compound hydrolysis analyzed.
# The data for prodrug compounds I-1 and I-2 are shown in FIG. 8 and FIG. 9, respectively. […] The monoglycerides were then converted at different rates to an acid intermediate and/or free parent ALLO. An acid intermediate was not observed for prodrug I-2. The acid intermediate of prodrug I-1 is believed to have the following structure, based on HPLC-MS data: […]
# [5] = Rat pharmacokinetic studies: plasma allopregnanolone after oral prodrug or ALLO, and after IV ALLO; assay type: in vivo, male Sprague-Dawley rats; conditions: plasma Allo after oral gavage to rats; doses normalized to 2 mg/kg equivalent ALLO; mean±SD (n≥3) or mean±range (n=2)
# Protocol: In order to assess the oral bioavailability of test compounds, pharmacokinetic studies were conducted using the following procedure. The day before drug administration, male Sprague-Dawley rats (240-320 g) were anesthetized and the carotid artery was cannulated. The rats were then allowed to regain consciousness and fasted overnight prior to the commencement of experiments with free access to water. The next morning, formulations containing parent compounds or prodrugs were administered via oral gavage or via the jugular vein cannula, and blood samples were collected from the carotid artery cannula from −5 min up to 24 h post dosing. During the blood sample collection period the rats had free access to water but remained fasted for a further 8 h following drug administration. In these allopregnanolone (ALLO) related studies, the blood samples were centrifuged at 4500×g for 5 min to separate plasma. Plasma samples were stored at −20° C. prior to assay by HPLC-MS-MS. The whole blood or plasma samples were assayed for free drug (i.e. non-glyceride associated drug) and were not hydrolized prior to assay (as was the case with the lymph samples).
# FIG. 3 illustrates dose-normalized ALLO plasma concentrations following oral gavage of ALLO related formulations to conscious, carotid artery-cannulated male SD rats. The ALLO oral formulation for each rat contained 2 mg of parent ALLO (i.e., non-prodrug allopregnanolone) suspended in 2 ml of suspending vehicle (0.50 sodium carboxymethyl cellulose, 0.4% Tween 80 and 0.9% NaCl in water). Prodrug formulations for each rat contained 2 mg of the ALLO prodrug dispersed in 40 mg oleic acid, 25 mg Tween 80 and 2 ml PBS. Doses were normalized to a 2 mg/kg equivalent dose of ALLO. Data are shown as mean±SD n≥3 or mean±range when n=2. […] Doses are normalized to a 2 mg/kg equivalent ALLO dose and data are presented as mean±SD when n≥3 or mean±range when n=2.
# Also shown (bottom) is the calculated area under the curve (AUC) over 0-24 h for each of the test compounds as a fraction of the IV-administered allpregnanolone control.
# [6] = background statement; cited from earlier work
structure (smiles),measurement,setting,value
"CCCCCCCCCCCCCCCC(=O)OCC(COC(=O)CCCCCCCCCCCCCCC)OC(=O)CC(C)CC(=O)OC(C)OC(=O)O[C@@H]1CC[C@@]2(C)[C@@H](CC[C@@H]3[C@@H]2CC[C@]2(C)[C@@H](C(C)=O)CC[C@@H]32)C1 (stereo partly drawn) [Compound I-2, 1-(1-(((((3R,5S,8R,9S,10S,13S,14S,17S)-17-acetyl-10,13-dimethylhexadecahydro-1H-cyclopenta[a]phenanthren-3-yl)oxy)carbonyl)oxy)ethyl) 5-(1,3-bis(palmitoyloxy)propan-2-yl) 3-methylpentanedioate]",acid intermediate of hydrolysis,[1],not observed
same,hydrolysis of prodrug to its monoglyceride form,[1]; 0-180 min,rapidly converted to the prodrug's monoglyceride form
same,acid intermediate of hydrolysis,[2],not observed
same,hydrolysis of prodrug to its monoglyceride form,[2],rapidly converted to the prodrug's monoglyceride form
same,acid intermediate of hydrolysis,[3],not observed
same,hydrolysis of prodrug to its monoglyceride form,[3],rapidly converted to the prodrug's monoglyceride form
same,acid intermediate of hydrolysis,[4]; HPLC-MS,not observed
same,hydrolysis of prodrug to its monoglyceride form,[4],rapidly converted to the prodrug's monoglyceride form
"CCCCCCCCCCCCCCCC(=O)OCC(COC(=O)CCCCCCCCCCCCCCC)OC(=O)C(C)(C)CCCCCCCC(=O)O[C@@H]1CC[C@@]2(C)[C@@H](CC[C@@H]3[C@@H]2CC[C@]2(C)[C@@H](C(C)=O)CC[C@@H]32)C1 [Compound I-12, 10-((3R,5S,8R,9S,10S,13S,14S,17S)-17-acetyl-10,13-dimethylhexadecahydro-1H-cyclopenta[a]phenanthren-3-yl) 1-(1,3-bis(palmitoyloxy)propan-2-yl) 2,2-dimethyldecanedioate]",Cmax,[5],below LOQ)
CCCCCCCCCCC(=O)O[C@H]1CC[C@H]2[C@@H]3CCC4=CC(=O)CC[C@]4(C)[C@H]3CC[C@]12C [testosterone undecanoate],bioavailability of testosterone after oral administration of the undecanoate ester,[6],< 5%
"CCCCCCCCCCCCCCCC(=O)OCC(COC(=O)CCCCCCCCCCCCCCC)OC(=O)C(C)(C)CCCCCCCCCC(=O)O[C@@H]1CC[C@@]2(C)[C@@H](CC[C@@H]3[C@@H]2CC[C@]2(C)[C@@H](C(C)=O)CC[C@@H]32)C1 [Compound I-13, 12-((3R,5S,8R,9S,10S,13S,14S,17S)-17-acetyl-10,13-dimethylhexadecahydro-1H-cyclopenta[a]phenanthren-3-yl) 1-(1,3-bis(palmitoyloxy)propan-2-yl) 2,2-dimethyldodecanedioate]",Cmax,[5],below LOQ)
"CCCCCCCCCCCCCCCC(=O)OCC(COC(=O)CCCCCCCCCCCCCCC)OC(=O)CCCCCCCCC(=O)O[C@@H]1CC[C@@]2(C)[C@@H](CC[C@@H]3[C@@H]2CC[C@]2(C)[C@@H](C(C)=O)CC[C@@H]32)C1 [Compound I-1, 1-((3R,5S,8R,9S,10S,13S,14S,17S)-17-acetyl-10,13-dimethylhexadecahydro-1H-cyclopenta[a]phenanthren-3-yl) 10-(1,3-bis(palmitoyloxy)propan-2-yl) decanedioate]",hydrolysis of prodrug to its monoglyceride form,[2],rapidly converted to the prodrug's monoglyceride form
same,hydrolysis of prodrug to its monoglyceride form,[3],rapidly converted to the prodrug's monoglyceride form
same,hydrolysis of prodrug to its monoglyceride form,[4],rapidly converted to the prodrug's monoglyceride form
